Measured values reported in patent publication EP3782997A1, “FUSED PYRIMIDINE COMPOUNDS AND PHARMACEUTICAL COMPOSITIONS THEREOF FOR THE TREATMENT OF FIBROTIC DISEASES” (Galapagos N.V., priority 2019, dated 2021).

What follows are compounds tested against hENPP2 (Homo sapiens, UniProt Q13822) (assay: Human ENPP2 (hENPP2) biochemical assay using LPC as substrate). Conditions: 150 µM LPC (palmitoyl 16:0), 37°C for 30 min.
Method in brief: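 Enzyme at 1 or 3 µg/mL final in Tris-HCl pH 8.5, NaCl, KCl, CaCl2, fatty-acid-free BSA; reaction started with 150 µM LPC 16:0 (as added), 30 min at 37°C. Released choline developed with choline oxidase/peroxidase/TOOS/4-aminoantipyrine plus EGTA stop, read at 555 nm after 30 min; 1/3 dilutions from 50 µM give IC50.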

`Cc1cc(C)cc(Nc2ncc3c(n2)CN(C2CCN(C(=O)c4cc5[nH]nnc5cc4F)CC2)C3)c1` [compound 79, [4-[2-(3,5-dimethylanilino)-5,7-dihydropyrrolo[3,4-d]pyrimidin-6-yl]-1-piperidyl]-(6-fluoro-3H-benzotriazol-5-yl)methanone] and `COc1cc2[nH]nnc2cc1C(=O)N1CCC(N2Cc3cnc(Nc4cc(C)cc(C)c4)nc3C2)CC1` [compound 106, [4-[2-(3,5-dimethylanilino)-5,7-dihydropyrrolo[3,4-d]pyrimidin-6-yl]-1-piperidyl]-(6-methoxy-1H-benzotriazol-5-yl)methanone] fall in the same range of IC50: 0.01 to 100 nM for the first, 0.01 to 100 nM for the second.

`Cc1cc(C)cc(Nc2ncc3c(n2)CN(C2CN(C(=O)c4cc5[nH]nnc5cc4F)C2)C3)c1` [compound 80, [3-[2-(3,5-dimethylanilino)-5,7-dihydropyrrolo[3,4-d]pyrimidin-6-yl]azetidin-1-yl]-(6-fluoro-3H-benzotriazol-5-yl)methanone] and `COc1cc2[nH]nnc2cc1C(=O)N1CC(N2Cc3cnc(Nc4cc(C)cc(C)c4)nc3C2)C1` [compound 81, [3-[2-(3,5-dimethylanilino)-5,7-dihydropyrrolo[3,4-d]pyrimidin-6-yl]azetidin-1-yl]-(6-methoxy-1H-benzotriazol-5-yl)methanone] fall in the same range of IC50: 0.01 to 100 nM for the first, 0.01 to 100 nM for the second.

`Cc1cc(C)cc(Nc2ncc3c(n2)CN(C2CN(C(=O)c4cc5nn[nH]c5cc4F)CC2C)C3)c1` (stereo not shown) [compound 82, [3-[2-(3,5-dimethylanilino)-5,7-dihydropyrrolo[3,4-d]pyrimidin-6-yl]-4-methyl-pyrrolidin-1-yl]-(6-fluoro-1H-benzotriazol-5-yl)methanone] and `COc1cc2[nH]nnc2cc1C(=O)N1CC(C)C(N2Cc3cnc(Nc4cc(C)cc(C)c4)nc3C2)C1` (stereo not shown) [compound 83, [3-[2-(3,5-dimethylanilino)-5,7-dihydropyrrolo[3,4-d]pyrimidin-6-yl] -4-methyl-pyrrolidin-1-yl]-(6-methoxy-1H-benzotriazol-5-yl)methanone] fall in the same range of IC50: 100 to 500 nM for the first, 100 to 500 nM for the second.

Compared with `Cc1cc(C)cc(Nc2ncc3c(n2)CN(C2=C(C#N)CN(C(=O)c4ccc5nn[nH]c5c4)C2)C3)c1` [compound 85, 1-(3H-benzotriazole-5-carbonyl)-4-[2-(3,5-dimethylanilino)-5,7-dihydropyrrolo[3,4-d]pyrimidin-6-yl]-2,5-dihydropyrrole-3-carbonitrile], `Cc1cc(C)cc(Nc2ncc3c(n2)CCN(C2CN(C(=O)c4ccc5nn[nH]c5c4)CC2C)C3)c1` (stereo not shown) [compound 87, 3H -benzotriazol-5-yl-[3-[2-(3,5-dimethylanilino)-7,8-dihydro-5H-pyrido[4,3-d]pyrimidin-6-yl] -4-methyl-pyrrolidin-1-yl]methanone] is lower in IC50: 100 to 500 nM for the first, 0.01 to 100 nM for the second. The second is the more potent here.

`COc1cc2[nH]nnc2cc1C(=O)N1CC(C)C(N2CCc3nc(Nc4cc(C)cc(C)c4)ncc3C2)C1` (stereo not shown) [compound 88, [3-[2-(3,5-dimethylanilino)-7,8-dihydro-5H-pyrido[4,3-d]pyrimidin-6-yl]-4-methyl-pyrrolidin-1-yl]-(6-methoxy-1H-benzotriazol-5-yl)methanone] and `COc1cc2[nH]nnc2cc1C(=O)N1CC[C@@H](N2Cc3cnc(Nc4cc(C)cc(C)c4)nc3C2)C[C@H]1C` [compound 105, [(2R,4R)-4-[2-(3,5-dimethylanilino)-5,7-dihydropyrrolo[3,4-d]pyrimidin-6-yl]-2-methyl-1-piperidyl]-(6-methoxy-1H-benzotriazol-5-yl)methanone] fall in the same range of IC50: 0.01 to 100 nM for the first, 0.01 to 100 nM for the second.

`Cc1cc(C)cc(Nc2ncc3c(n2)CN([C@H]2CCN(C(=O)c4ccc5[nH]nnc5c4)[C@H](C)C2)C3)c1` [compound 92, 1H-benzotriazol-5-yl-[(2R,4S)-4-[2-(3,5-dimethylanilino)-5,7-dihydropyrrolo[3,4-d]pyrimidin-6-yl]-2-methyl-1-piperidyl]methanone] and `Cc1cc(C)cc(Nc2ncc3c(n2)CN([C@@H]2CCN(C(=O)c4ccc5[nH]nnc5c4)[C@@H](C)C2)C3)c1` [compound 93, 1H-benzotriazol-5-yl-[(2S,4R)-4-[2-(3,5-dimethylanilino)-5,7-dihydropyrrolo[3,4-d]pyrimidin-6-yl]-2-methyl-1-piperidyl]methanone] fall in the same range of IC50: 0.01 to 100 nM for the first, 0.01 to 100 nM for the second.

Compared with `Cc1cc(C)cc(Nc2ncc3c(n2)CCCN(C2CN(C(=O)c4ccc5[nH]nnc5c4)C2)C3)c1` [compound 94, 1H-benzotriazol-5-yl-[3-[2-(3,5-dimethylanilino)-5,7,8,9-tetrahydropyrimido[5,4-c]azepin-6-yl]azetidin-1-yl]methanone], `Cc1cc(C)cc(Nc2ncc3c(n2)CCN([C@@H]2CCN(C(=O)c4ccc5[nH]nnc5c4)[C@H](C)C2)C3)c1` [compound 98, 1H-benzotriazol-5-yl-[(2R,4R)-4-[2-(3,5-dimethylanilino)-7,8-dihydro-5H-pyrido[4,3-d]pyrimidin-6-yl]-2-methyl-1-piperidyl]methanone] is lower in IC50: > 1000 nM for the first, 100 to 500 nM for the second.

`Cc1cc(C)cc(Nc2ncc3c(n2)C(C)(C)N(C2CN(C(=O)c4ccc5[nH]nnc5c4)C2)C3)c1` [compound 95, 1H-benzotriazol-5-yl-[3-[2-(3,5-dimethylanilino)-7,7-dimethyl-5H-pyrrolo[3,4-d]pyrimidin-6-yl]azetidin-1-yl]methanone] and `Cc1cc(C)cc(Nc2ncc3c(n2)CCN(C2CCN(C(=O)c4ccc5[nH]nnc5c4)CC2)CC3)c1` [compound 109, 1H-benzotriazol-5-yl-[4-[2-(3,5-dimethylanilino)-5,6,8,9-tetrahydropyrimido[4,5-d]azepin-7-yl]-1-piperidyl]methanone] fall in the same range of IC50: 0.01 to 100 nM for the first, 0.01 to 100 nM for the second.

`Cc1cc(C)cc(Nc2ncc3c(n2)CN(C2CCN(C(=O)c4ccc5[nH]nnc5c4)C(C(F)(F)F)C2)C3)c1` (stereo not shown) [compound 107, 1H-benzotriazol-5-yl-[4-[2-(3,5-dimethylanilino)-5,7-dihydropyrrolo[3,4-d]pyrimidin-6-yl]-2-(trifluoromethyl)-1-piperidyl]methanone] and `COc1cc(Nc2ncc3c(n2)CN([C@@H]2CCN(C(=O)c4ccc5[nH]nnc5c4)[C@H](C)C2)C3)cc(C(F)(F)F)c1` [compound 127, 1H-benzotriazol-5-yl-[(2R,4R)-4-[2-[3-methoxy-5-(trifluoromethyl)anilino]-5,7-dihydropyrrolo[3,4-d]pyrimidin-6-yl]-2-methyl-1-piperidyl]methanone] fall in the same range of IC50: 0.01 to 100 nM for the first, 0.01 to 100 nM for the second.

`COc1cc2[nH]nnc2cc1C(=O)N1CC[C@@H](N2Cc3cnc(Nc4cc(C)cc(C)c4)nc3C2)C[C@@H]1C` [compound 112, [(2S,4R)-4-[2-(3,5-dimethylanilino)-5,7-dihydropyrrolo[3,4-d]pyrimidin-6-yl]-2-methyl-1-piperidyl]-(6-methoxy-1H-benzotriazol-5-yl)methanone] and `COc1cc2[nH]nnc2cc1C(=O)N1CC[C@H](N2Cc3cnc(Nc4cc(C)cc(C)c4)nc3C2)C[C@@H]1C` [compound 113, [(2S,4S)-4-[2-(3,5-dimethylanilino)-5,7-dihydropyrrolo[3,4-d]pyrimidin-6-yl]-2-methyl-1-piperidyl]-(6-methoxy-1H-benzotriazol-5-yl)methanone] fall in the same range of IC50: 0.01 to 100 nM for the first, 0.01 to 100 nM for the second.

First: Cc1cc(C)cc(Nc2ncc3c(n2)CN(C2CC4CCC(C2)N4C(=O)c2ccc4[nH]nnc4c2)C3)c1 (stereo not shown) [compound 114, 1H-benzotriazol-5-yl-[3-[2-(3,5-dimethylanilino)-5,7-dihydropyrrolo[3,4-d]pyrimidin-6-yl]-8-azabicyclo[3.2.1]octan-8-yl]methanone]
Second: Cc1cc(C)cc(Nc2ncc3c(n2)CN([C@H]2CCN(C(=O)c4cc5nn[nH]c5cc4F)[C@H](C)C2)C3)c1 [compound 116, [(2R,4S)-4-[2-(3,5-dimethylanilino)-5,7-dihydropyrrolo[3,4-d]pyrimidin-6-yl]-2-methyl-1-piperidyl]-(6-fluoro-1H-benzotriazol-5-yl)methanone]
The IC50 of the first is higher: 100 to 500 nM for the first, 0.01 to 100 nM for the second. The second is the more potent here.

First: COc1cc2[nH]nnc2cc1C(=O)N1CC[C@H](N2Cc3cnc(Nc4cc(C)cc(C)c4)nc3C2)C[C@H]1C [compound 120, [(2R,4S)-4-[2-(3,5-dimethylanilino)-5,7-dihydropyrrolo[3,4-d]pyrimidin-6-yl]-2-methyl-1-piperidyl]-(6-methoxy-1H-benzotriazol-5-yl)methanone]
Second: Cc1cc(C)cc(Nc2ncc3c(n2)CN([C@H]2CCN(C(=O)c4cccc(-c5nnn[nH]5)c4)[C@@H](C)C2)C3)c1 [compound 123, [(2S,4S)-4-[2-(3,5-dimethylanilino)-5,7-dihydropyrrolo[3,4-d]pyrimidin-6-yl]-2-methyl-1-piperidyl]-[3-(1H-tetrazol-5-yl)phenyl]methanone]
The IC50 of the first is lower: 0.01 to 100 nM for the first, > 1000 nM for the second.

`COc1cc(Nc2ncc3c(n2)CN([C@@H]2CCN(C(=O)c4ccc5[nH]nnc5c4)[C@H](C)C2)C3)ccc1F` [compound 126, 1H-benzotriazol-5-yl-[(2R,4R)-4-[2-(4-fluoro-3-methoxy-anilino)-5,7-dihydropyrrolo[3,4-d]pyrimidin-6-yl]-2-methyl-1-piperidyl]methanone] and `Cc1ccc(Nc2ncc3c(n2)CN([C@@H]2CCN(C(=O)c4ccc5[nH]nnc5c4)[C@H](C)C2)C3)cc1` [compound 134, 1H-benzotriazol-5-yl-[(2R,4R)-2-methyl-4-[2-(4-methylanilino)-5,7-dihydropyrrolo[3,4-d]pyrimidin-6-yl]-1-piperidyl]methanone] fall in the same range of IC50: 0.01 to 100 nM for the first, 0.01 to 100 nM for the second.

`C[C@@H]1C[C@@H](N2Cc3cnc(Nc4cc(C#N)cc(C(F)(F)F)c4)nc3C2)CCN1C(=O)c1ccc2[nH]nnc2c1` [compound 128, 3-[[6-[(2R,4S)-1-(1H-benzotriazole-5-carbonyl)-2-methyl-4-piperidyl]-5,7-dihydropyrrolo[3,4-d]pyrimidin-2-yl]amino]-5-(trifluoromethyl)benzonitrile] and `C[C@@H]1C[C@H](N2Cc3cnc(Nc4cc(C(N)=O)cc(C(F)(F)F)c4)nc3C2)CCN1C(=O)c1ccc2[nH]nnc2c1` [compound 129, 3-[[6-[(2R,4R)-1-(1H-benzotriazole-5-carbonyl)-2-methyl-4-piperidyl]-5,7-dihydropyrrolo[3,4-d]pyrimidin-2-yl]amino]-5-(trifluoromethyl)benzamide] fall in the same range of IC50: 0.01 to 100 nM for the first, 0.01 to 100 nM for the second.
